Measurements as given in patent US7303763B2, “Compositions for conjugated estrogens and associated methods” (Watson Laboratories, Inc., priority 2001, dated 2007).

Assay: Accelerated stability study of coated 0.625 mg conjugated estrogens tablets (active compounds and degradation products per USP, LOD)
Type: physicochemical
Conditions: for Change: initial % found versus 40c
Source text: (§1) Stability was monitored under different storage conditions.
as §1

[1] = acrylic-coated 0.625 mg tablets, Lot EXPWS 1251, 10% Eudragit/RS:RL (2:1), Initial
[2] = acrylic-coated tablets, Lot EXPWS 1251, 40c, 75% RH/1m
[3] = acrylic-coated tablets, Lot EXPWS 1251, 40c, 75% RH/2m
[4] = acrylic-coated tablets, Lot EXPWS 1251, 40c, 75% RH/3m
[5] = acrylic-coated tablets, Lot EXPWS 1251, 50c, 75% RH/2 wks
[6] = acrylic-coated tablets, Lot EXPWS 1251, 75% RH/3m
[7] = sugar-coated 0.625 mg tablets, Lot EXPWS 1246, Initial
[8] = sugar-coated tablets, Lot EXPWS 1246, 40c, 75% RH/1 mnth
[9] = sugar-coated tablets, Lot EXPWS 1246, 40c, 75% RH/2 mnth
[10] = sugar-coated tablets, Lot EXPWS 1246, 50c, 75% RH/2 wks

Row | Structure (SMILES) | % Found [1] [%] | % Found [2] [%] | % Initial [2] [%] | % Found [3] [%] | % Initial [3] [%] | % Found [4] [%] | % Initial [4] [%] | % Found [5] [%] | % Initial [5] [%] | Change [6] | % Found [7] [%] | % Found [8] [%] | % Initial [8] [%] | % Found [9] [%] | % Initial [9] [%] | % Found [10] [%] | % Initial [10] [%]
1 | C[C@]12CCc3c(ccc4cc(O)ccc34)[C@@H]1CCC2=O [Equilenin] | 2.2 | 2.3 | 104.5 | 2.6 | 118.2 | 3.0 | 136.4 | 2.5 | 113.6 | −0.8 | 2.6 | 2.8 | 107.7 | 2.8 | 107.7 | 2.8 | 107.7
2 | C[C@]12CC[C@H]3C(=CCc4cc(O)ccc43)[C@@H]1CCC2=O [Equilin] | 27.3 | 27.1 | 99.3 | 26.5 | 97.1 | 26.4 | 96.7 | 26.5 | 97.1 | 0.9 | 22.7 | 23.0 | 101.3 | 23 | 101.3 | 23.3 | 102.6
3 | C[C@]12CCc3c(ccc4cc(O)ccc34)[C@@H]1CC[C@H]2O [17a-dihydroequilenin] | 1.65 | 2.03 | 123.0 | 2.34 | 141.8 | 2.82 | 170.9 | 1.79 | 108.5 | −1.17 | 2.05 | 2.16 | 105.4 | 2.2 | 107.3 | 2.19 | 106.8
4 | C[C@]12CC[C@H]3C(=CCc4cc(O)ccc43)[C@@H]1CC[C@H]2O [17a-dihydroequilin] | 17.9 | 17.9 | 100.0 | 17.6 | 98.3 | 18.1 | 101.1 | 17.4 | 97.2 | −0.2 | 14.0 | 14.3 | 102.1 | 14.5 | 103.6 | 14.5 | 103.6

Other lines, results leading:

Row | % Found [1] [%] | % Found [2] [%] | % Initial [2] [%] | % Found [3] [%] | % Initial [3] [%] | % Found [4] [%] | % Initial [4] [%] | % Found [5] [%] | % Initial [5] [%] | Change [6] | % Found [7] [%] | % Found [8] [%] | % Initial [8] [%] | % Found [9] [%] | % Initial [9] [%] | % Found [10] [%] | % Initial [10] [%] | Structure (SMILES)
5 | 4.15 | 4.13 | 99.5 | 4.02 | 96.9 | 3.91 | 94.2 | 4.07 | 98.1 | 0.24 | 4.72 | 4.68 | 99.2 | 4.53 | 96.0 | 4.91 | 104.0 | C[C@]12CCC3=C(CCc4cc(O)ccc43)[C@@H]1CCC2=O [d8,9 dehydroesterone]
6 | 2.3 | 2.6 | 108.7 | 2.4 | 104.3 | 2.4 | 104.3 | 2.2 | 95.7 | −0.1 | 1.3 | 1.3 | 100.0 | 1.4 | 107.7 | 1.3 | 100.0 | C[C@]12CC[C@H]3C(=CCc4cc(O)ccc43)[C@@H]1CC[C@@H]2O [17b-dihydroequilin]
7 | 0.77 | 0.97 | 126.0 | 0.86 | 111.7 | 0.68 | 88.3 | 0.67 | 87.0 | 0.09 | 0.56 | 0.58 | 103.6 | 0.44 | 78.6 | 0.63 | 112.5 | C[C@]12CCc3c(ccc4cc(O)ccc34)C1CCC2O (stereo partly drawn) [17b-dihydroequilenin]
8 | 1.26 | 0.90 | 71.4 | 0.96 | 76.2 | 0.88 | 69.8 | 1.11 | 88.1 | 0.38 | 0.60 | 0.56 | 93.3 | 0.62 | 103.3 | 0.59 | 98.3 | C[C@]12CC[C@@H]3c4ccc(O)cc4CC[C@H]3[C@@H]1CC[C@@H]2O [17b-estradiol]
9 | 4.6 | 4.7 | 102.2 | 4.7 | 102.2 | 4.8 | 104.3 | 4.5 | 97.8 | −0.2 | 3.8 | 3.9 | 102.6 | 3.9 | 102.6 | 3.8 | 100.0 | C[C@]12CC[C@@H]3c4ccc(O)cc4CC[C@H]3[C@@H]1CC[C@H]2O [17a-estradiol]
